From the supplement of paper PMC10307832

Columns and labels:
Experiment in all cases: relative viability (nuclei count vs DMSO), 5 days (fraction); higher = more cells survive
HARA = tested on: HARA
Procedure, shortened: (§1)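 Values are medians from duplicate plates. Each reflects relative viability, defined as the nuclei count of treated wells over that of vehicle wells. Lung cancer cell lines in 1536-well plates were pin-tool dosed one day after seeding with one drug alone or with a fixed anchor-drug dose plus five library-drug doses (not always all listed) in √10 steps, then fixed, stained and imaged at 4× after 5 days.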

NCI-H1915 = tested on: NCI-H1915
Procedure, shortened: as §1

NCI-H1395 = tested on: NCI-H1395
Procedure, shortened: as §1

EMC-BAC-2 = tested on: EMC-BAC-2
Procedure, shortened: as §1

NCI-H1437 = tested on: NCI-H1437
Procedure, shortened: as §1

NCI-H460 = tested on: NCI-H460
Procedure, shortened: as §1

NCI-H522 = tested on: NCI-H522
Procedure, shortened: as §1

LCLC-103H = tested on: LCLC-103H
Procedure, shortened: as §1

CAL-12T = tested on: CAL-12T
Procedure, shortened: as §1

NCI-H727 = tested on: NCI-H727
Procedure, shortened: as §1

NCI-H23 = tested on: NCI-H23
Procedure, shortened: as §1

SW 1573 = tested on: SW 1573
Procedure, shortened: as §1

COR-L 105 = tested on: COR-L 105
Procedure, shortened: as §1

A-427 = tested on: A-427
Procedure, shortened: as §1

NCI-H2228 = tested on: NCI-H2228
Procedure, shortened: as §1

NCI-H2009 = tested on: NCI-H2009
Procedure, shortened: as §1

HCC-366 = tested on: HCC-366
Procedure, shortened: as §1

HCC-827 = tested on: HCC-827
Procedure, shortened: as §1

HOP-62 = tested on: HOP-62
Procedure, shortened: as §1

NCI-H1755 = tested on: NCI-H1755
Procedure, shortened: as §1

SK-LU-1 = tested on: SK-LU-1
Procedure, shortened: as §1

Compound CC(=O)O[C@@]12CO[C@@H]1C[C@H](O)[C@@]1(C)C(=O)[C@H](O)C3=C(C)[C@@H](OC(=O)[C@H](O)[C@@H](NC(=O)OC(C)(C)C)c4ccccc4)C[C@@](O)([C@@H](OC(=O)c4ccccc4)[C@H]21)C3(C)C [Docetaxel] + O=C(CCCCCCC(=O)Nc1ccccc1)NO [Vorinostat] (partner 1 µM) has a relative viability (HARA; first compound 0.0002 µM) of 0.5, a relative viability (HARA; first compound 0.000632 µM) of 0.219 and a relative viability (HARA; first compound 0.002 µM) of 0.148. The relative viability (HARA; first compound 0.006325 µM) was 0.215, the relative viability (HARA; first compound 0.02 µM) was 0.0839 and the relative viability (NCI-H1915; first compound 0.0002 µM) was 0.531. For the same compound, the relative viability (NCI-H1915; first compound 0.000632 µM) was 0.258, the relative viability (NCI-H1915; first compound 0.002 µM) was 0.316 and the relative viability (NCI-H1915; first compound 0.006325 µM) was 0.174. The relative viability (NCI-H1915; first compound 0.02 µM) was 0.0863, the relative viability (NCI-H1395; first compound 0.0002 µM) was 0.672 and the relative viability (NCI-H1395; first compound 0.000632 µM) was 0.601. It also gave a relative viability (NCI-H1395; first compound 0.002 µM) of 0.462, a relative viability (NCI-H1395; first compound 0.006325 µM) of 0.375 and a relative viability (NCI-H1395; first compound 0.02 µM) of 0.239. For the same compound, the relative viability (EMC-BAC-2; first compound 0.0002 µM) was 0.388, the relative viability (EMC-BAC-2; first compound 0.000632 µM) was 0.293 and the relative viability (EMC-BAC-2; first compound 0.002 µM) was 0.262. It also gave a relative viability (EMC-BAC-2; first compound 0.006325 µM) of 0.224, a relative viability (EMC-BAC-2; first compound 0.02 µM) of 0.171 and a relative viability (NCI-H1437; first compound 0.0002 µM) of 0.838. For the same compound, the relative viability (NCI-H1437; first compound 0.000632 µM) was 0.522, the relative viability (NCI-H1437; first compound 0.002 µM) was 0.553 and the relative viability (NCI-H1437; first compound 0.006325 µM) was 0.275. It also gave a relative viability (NCI-H1437; first compound 0.02 µM) of 0.185, a relative viability (NCI-H460; first compound 0.0002 µM) of 0.637 and a relative viability (NCI-H460; first compound 0.000632 µM) of 0.349. The relative viability (NCI-H460; first compound 0.002 µM) was 0.0613, the relative viability (NCI-H460; first compound 0.006325 µM) was 0.0388 and the relative viability (NCI-H460; first compound 0.02 µM) was 0.0166. It also gave a relative viability (NCI-H522; first compound 0.0002 µM) of 0.852, a relative viability (NCI-H522; first compound 0.000632 µM) of 0.899 and a relative viability (NCI-H522; first compound 0.002 µM) of 0.713. For the same compound, the relative viability (NCI-H522; first compound 0.006325 µM) was 0.516, the relative viability (NCI-H522; first compound 0.02 µM) was 0.344 and the relative viability (LCLC-103H; first compound 0.0002 µM) was 0.703. It also gave a relative viability (LCLC-103H; first compound 0.000632 µM) of 0.695, a relative viability (LCLC-103H; first compound 0.002 µM) of 0.513 and a relative viability (LCLC-103H; first compound 0.006325 µM) of 0.604. The relative viability (LCLC-103H; first compound 0.02 µM) was 0.47, the relative viability (CAL-12T; first compound 0.0002 µM) was 0.411 and the relative viability (CAL-12T; first compound 0.000632 µM) was 0.35. The relative viability (CAL-12T; first compound 0.002 µM) was 0.255, the relative viability (CAL-12T; first compound 0.006325 µM) was 0.142 and the relative viability (CAL-12T; first compound 0.02 µM) was 0.12. It also gave a relative viability (NCI-H727; first compound 0.0002 µM) of 1.08, a relative viability (NCI-H727; first compound 0.000632 µM) of 1.13 and a relative viability (NCI-H727; first compound 0.002 µM) of 1.2. For the same compound, the relative viability (NCI-H727; first compound 0.006325 µM) was 0.748, the relative viability (NCI-H727; first compound 0.02 µM) was 0.67 and the relative viability (NCI-H23; first compound 0.0002 µM) was 0.55. The relative viability (NCI-H23; first compound 0.000632 µM) was 0.305, the relative viability (NCI-H23; first compound 0.002 µM) was 0.165 and the relative viability (NCI-H23; first compound 0.006325 µM) was 0.155. It also gave a relative viability (NCI-H23; first compound 0.02 µM) of 0.0848, a relative viability (SW 1573; first compound 0.0002 µM) of 0.547 and a relative viability (SW 1573; first compound 0.000632 µM) of 0.305. The relative viability (SW 1573; first compound 0.002 µM) was 0.228, the relative viability (SW 1573; first compound 0.006325 µM) was 0.174 and the relative viability (SW 1573; first compound 0.02 µM) was 0.126. The relative viability (COR-L 105; first compound 0.0002 µM) was 0.889, the relative viability (COR-L 105; first compound 0.000632 µM) was 0.747 and the relative viability (COR-L 105; first compound 0.002 µM) was 0.392. The relative viability (COR-L 105; first compound 0.006325 µM) was 0.413, the relative viability (COR-L 105; first compound 0.02 µM) was 0.368 and the relative viability (A-427; first compound 0.0002 µM) was 0.824. The relative viability (A-427; first compound 0.000632 µM) was 0.822, the relative viability (A-427; first compound 0.002 µM) was 0.621 and the relative viability (A-427; first compound 0.006325 µM) was 0.36. It also gave a relative viability (A-427; first compound 0.02 µM) of 0.27, a relative viability (NCI-H2228; first compound 0.0002 µM) of 0.565 and a relative viability (NCI-H2228; first compound 0.000632 µM) of 0.145. It also gave a relative viability (NCI-H2228; first compound 0.002 µM) of 0.168, a relative viability (NCI-H2228; first compound 0.006325 µM) of 0.151 and a relative viability (NCI-H2228; first compound 0.02 µM) of 0.145. The relative viability (NCI-H2009; first compound 0.0002 µM) was 0.714, the relative viability (NCI-H2009; first compound 0.000632 µM) was 0.715 and the relative viability (NCI-H2009; first compound 0.002 µM) was 0.707. It also gave a relative viability (NCI-H2009; first compound 0.006325 µM) of 0.301, a relative viability (NCI-H2009; first compound 0.02 µM) of 0.176 and a relative viability (HCC-366; first compound 0.0002 µM) of 0.299. It also gave a relative viability (HCC-366; first compound 0.000632 µM) of 0.0824, a relative viability (HCC-366; first compound 0.002 µM) of 0.0503 and a relative viability (HCC-366; first compound 0.006325 µM) of 0.0366. For the same compound, the relative viability (HCC-366; first compound 0.02 µM) was 0.0211, the relative viability (HCC-827; first compound 0.0002 µM) was 0.367 and the relative viability (HCC-827; first compound 0.000632 µM) was 0.903. It also gave a relative viability (HCC-827; first compound 0.002 µM) of 0.528, a relative viability (HCC-827; first compound 0.006325 µM) of 0.279 and a relative viability (HCC-827; first compound 0.02 µM) of 0.238. The relative viability (HOP-62; first compound 0.0002 µM) was 0.522, the relative viability (HOP-62; first compound 0.000632 µM) was 0.346 and the relative viability (NCI-H1755; first compound 0.0002 µM) was 0.791. It also gave a relative viability (NCI-H1755; first compound 0.000632 µM) of 0.728, a relative viability (NCI-H1755; first compound 0.002 µM) of 0.433 and a relative viability (NCI-H1755; first compound 0.006325 µM) of 0.479. The relative viability (NCI-H1755; first compound 0.02 µM) was 0.373, the relative viability (SK-LU-1; first compound 0.0002 µM) was 0.754 and the relative viability (SK-LU-1; first compound 0.000632 µM) was 0.537. For the same compound, the relative viability (SK-LU-1; first compound 0.002 µM) was 0.38, the relative viability (SK-LU-1; first compound 0.006325 µM) was 0.349 and the relative viability (SK-LU-1; first compound 0.02 µM) was 0.226.
